Source: patent publication US20240400572A1, “COMPOUNDS AND METHODS FOR TREATING CANCERS THAT ARE MGMT DEFICIENT REGARDLESS OF MMR STATUS” (Yale University, priority 2021, published 2024)

Experiments:
[1] = test system: PEO4 (BRCA2+) and PEO1 (BRCA2−/−) cells; experiment: Short-term cell viability assay in PEO1/4 model; assay type: cell-based, human
Method: FIGS. Z4A-Z4I. KL-50 (4a) activates DNA damage response pathways and cycle arrest in MGMT− cells, independent of MMR, and induces sensitivity in cells deficient in ICL or HR repair. (FIGS. Z4A, Z4B, and Z4C) Phospho-SER139-H2AX (γH2AX) (A), 53BP1 (FIG. Z4B), and phospo-SER33-RPA2 (pRPA) (FIG. Z4C) foci formation quantified by % cells with 10 foci in LN229 MGMT+/−, MMR+/− cells treated with 0.1% DMSO control, 20 μM KL-50 (4a), or 20 μM TMZ (1a) for 48 h. Columns, mean; error bars, SD; n≥5 technical replicates. Additional time course data is presented in FIG. ZS6B to D. (FIG. Z4D) Representative foci images of data in (FIG. Z4A) to (FIG. Z4C). (FIG. Z4E) Percentage of cells in G1, S, and G2 cell cycle phases after treatment as in (A) to (C), measured using integrated nuclear (Hoechst) staining intensity. Columns, mean; error bars, SD; n=3 independent analyses. (FIG. Z4F) Change in percent cells with 1 micronuclei from baseline (DMSO control) after treatment as in (FIG. Z4A) to (FIG. Z4C). Columns, mean; error bars, SD; […] technical replicates; **** p<0.0001; ns, not significant. Additional validation is presented in FIG. ZS9, A and B. (FIG. Z4G) Short-term viability assay curves for KL-50 (4a) in PD20 cells, deficient in FANCD2 (FANCD2−/−) or complemented with FANCD2 (+FANCD2). (FIG. Z4H) Short-term viability assay curves for KL-50 (4a) in PEO4 (BRCA2+) and PEO1 (BRCA2−/−) cells pre-treated with 0.01% DMSO control or 10 μM O^6BG (+O^6BG) for 1 h prior to KL-50 (4a) addition. (FIG. Z4I) Short-term viability assay curves for KL-50 (4a) in DLD1 BRCA2+/− and BRCA2−/− cells pre-treated with 0.01% DMSO control or 10 μM O^6BG (+O^6BG) for 1 h prior to KL-50 (4a) addition. For (FIG. Z4G), (FIG. Z4H), and (FIG. Z4I), points, mean; error bars, SD; n=3 technical replicates.
Short-term Cell Viability Assay. Cells were seeded in 96-well plates at 1000 or 2000 cells/well and allowed to adhere at 23° C. for 60 min and then incubated overnight at 37° C. Cells were treated with indicated concentrations of compounds in triplicate for 4-6 days prior to fixation with 3.7% paraformaldehyde and nuclear staining with 1 μg/mL Hoechst 33342 dye. Cells were imaged on a Cytation 3 imaging reader (BioTek) and quantified using CellProfiler software.

[2] = test system: LN229 MGMT− cells with shRNA targeting MSH6, MLH1, PMS2, or MSH3; experiment: Short-term cell viability assay in cells lacking other MMR proteins; assay type: cell-based, human
From the text: FIGS. ZS3A-ZS3J. KL-50 (4a) is effective in TMZ (1a)-resistant cells lacking other MMR proteins. (FIG. ZS3A) Western blotting performed in LN229 MGMT+/− cells with stable expression of shRNA targeting MSH6, MLH1, PMS2, or MSH3 to confirm depletion of the shRNA targets. In shMSH6 cells, there is reduced expression of MSH2, and in shMLH1 cells, there is loss of PMS2, due to destabilization in the setting of loss of their heterodimeric partners. GAPDH serves as loading control. (FIG. ZS3B) (Table S1.) IC50 values derived from short-term viability assays in LN229 MGMT+/− cells lines, +/−shRNA, treated with TMZ (1a) or KL-50 (4a). aMGMT TI (therapeutic index)=IC50 (MGMT+/MMR+) divided by IC50 (MGMT−/MMR+). bMMR RI (resistance index)=IC50 (MGMT−/MMR−) divided by IC50 (MGMT−/MMR+). (FIG. ZS3C) Short-term viability assay curves for TMZ (1a) in LN229 MGMT+/−, MMR+/shMSH6 cells. (FIG. ZS3D) Short-term viability assay curves for KL-50 (4a) in LN229 MGMT+/−, MMR+/shMSH6 cells. (FIG. ZS3E) Short-term viability assay curves for TMZ (1a) in LN229 MGMT+/−, MMR+/shMLH1 cells. (FIG. ZS3F) Short-term viability assay curves for KL-50 (4a) in LN229 MGMT+/−, MMR+/shMLH1 cells. (FIG. ZS3G) Short-term viability assay curves for TMZ (1a) in LN229 MGMT+/−, MMR+/shPMS2 cells. […]
Short-term Cell Viability Assay. […] Cells were imaged on a Cytation 3 imaging reader (BioTek) and quantified using CellProfiler software.

For NC(=O)c1ncn2c(=O)n(CCF)nnc12 [KL-50, 3-(2-fluoroethyl)-4-oxo-3H,4H-imidazo[4,3-d][1,2,3,5]tetrazine-8-carboxamide], the “therapeutic index (TI)” value ([1]; PEO1/4 model, ratio of IC50 values) was 62 fold, the “sensitivity of BRCA2-deficient cells (in words)” value ([1]; PEO1 versus PEO4, ± 10 μM O^6BG) was “BRCA2 loss enhanced the toxicity” and the “activity in MGMT− cells lacking MSH6, MLH1, PMS2, or MSH3 (in words)” value [2] was “confirmed the activity”.
